Measurements reported in patent US20240109937A1, “BINDING PEPTIDES AND USES THEREOF” (The Johns Hopkins University, priority 2021, published 2024).
Like-named read-outs stand apart in the source and are kept apart here. Bridge positions count the residues as written; N and C are the ends. Square brackets hold non-standard residues; d marks the D form. Peptide text beside a SMILES is read from it. hArg = N=C(N)NCCCC[C@H](N)C(=O)O

What was measured:
HL-1 cells [1] = assay: Cell viability assay (LDH release) in HL-1 cells under Ca2+ overload; type: cell-based, mouse
Method: Calcium (Ca^2+) Overload Protocol: Rapid and sustained intracellular Ca^2+ overload was obtained by adding the Ca^2+-ionophore, calcimycin (1 μM), to HL-1 cells incubated for 10 min in HBS KV medium (1.26 mM CaCl2, 0.81 mM MgSO4, 0.44 mM KH2PO4, 142 mM KCl, 0.27 mM K2HPO4, 5.55 mM D-glucose, 1 mM Na3VO4, 20 mM Hepes pH 7.4). To monitor intracellular Ca^2+ variations, HL-1 cells were loaded with 5 μM Fluo-4 FF AM (Molecular Probes) in HBS Na (Sigma) for 30 min before the media was replaced with HBS KV. […] Cell Viability Assay: HL-1 plasma membrane integrity was assessed by measuring lactate dehydrogenase (LDH) release in the culture supernatant. An enzymatic assay evaluated LDH activity. Samples of the cell-free culture supernatant were collected at indicated times in Figures/Figure Legends, while cells were lysed in 1% (w/v) Triton X-100 at the end of each experiment to estimate the remaining cellular content of LDH. The LDH activity at each time point was expressed as a percentage of total LDH activity.

HL-1 cells [2] = assay: Mitochondrial membrane potential (JC-1) assay in HL-1 cells; type: cell-based, mouse; conditions: Calcimycin 1 μM in HBS KV medium
Method: Calcium (Ca^2+) Overload Protocol: Rapid and sustained intracellular Ca^2+ overload was obtained by adding the Ca^2+-ionophore, calcimycin (1 μM), to HL-1 cells incubated for 10 min in HBS KV medium (1.26 mM CaCl2, 0.81 mM MgSO4, 0.44 mM KH2PO4, 142 mM KCl, 0.27 mM K2HPO4, 5.55 mM D-glucose, 1 mM Na3VO4, 20 mM Hepes pH 7.4). To monitor intracellular Ca^2+ variations, HL-1 cells were loaded with 5 μM Fluo-4 FF AM (Molecular Probes) in HBS Na (Sigma) for 30 min before the media was replaced with HBS KV. […] Mitochondrial Membrane Potential (MMP) Assay: MMP was determined using the potentiometric probe, JC-1. JC-1 (Molecular Probes) is a cationic carbocyanine dye that selectively accumulates in polarized mitochondria, where it forms red fluorescent aggregates (excitation 485/emission 590 nm). Upon mitochondrial depolarization, JC-1 is released into the cytosol, whereas a monomer emits green fluorescence (excitation 485 nm/emission 520 nm). Therefore, MMP variations were monitored as the ratio of fluorescent emissions at 590/520 nm using a fluorimeter plate reader (Fluoroskan Ascent Labsystem). HL-1 cells were incubated with JC-1 (1.5 μM) for 30 min at 37° C. in HBS Na before treatment protocols.

CAPN1 [3] = target: T1, CAPN1 (Mus musculus, UniProt O35350); assay: Calpain activity assay (Suc-LLVY-AMC cleavage) in HL-1 cells under Ca2+ overload; type: cell-based
T1 construct: endogenous in cells; host or cells: HL-1 cardiomyocytes
T1 sequence (O35350 1-713): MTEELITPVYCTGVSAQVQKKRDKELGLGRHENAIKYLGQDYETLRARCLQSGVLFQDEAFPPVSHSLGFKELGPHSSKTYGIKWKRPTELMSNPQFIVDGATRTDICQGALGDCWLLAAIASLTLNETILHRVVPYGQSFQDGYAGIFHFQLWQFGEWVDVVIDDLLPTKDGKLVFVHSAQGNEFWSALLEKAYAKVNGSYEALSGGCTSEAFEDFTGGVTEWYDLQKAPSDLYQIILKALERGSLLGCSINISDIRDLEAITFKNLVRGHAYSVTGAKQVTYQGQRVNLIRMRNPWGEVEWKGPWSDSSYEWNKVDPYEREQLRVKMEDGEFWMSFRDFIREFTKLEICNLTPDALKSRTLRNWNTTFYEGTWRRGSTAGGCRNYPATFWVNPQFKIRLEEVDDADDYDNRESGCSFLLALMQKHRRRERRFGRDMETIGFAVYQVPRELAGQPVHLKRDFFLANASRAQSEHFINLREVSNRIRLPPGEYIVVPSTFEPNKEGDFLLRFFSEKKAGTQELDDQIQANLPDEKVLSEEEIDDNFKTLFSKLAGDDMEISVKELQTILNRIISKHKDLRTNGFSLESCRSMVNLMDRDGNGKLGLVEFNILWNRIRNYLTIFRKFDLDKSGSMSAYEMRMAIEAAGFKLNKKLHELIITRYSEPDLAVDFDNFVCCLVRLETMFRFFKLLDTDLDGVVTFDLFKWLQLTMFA
T1 sequence (O88456 1-268 partner): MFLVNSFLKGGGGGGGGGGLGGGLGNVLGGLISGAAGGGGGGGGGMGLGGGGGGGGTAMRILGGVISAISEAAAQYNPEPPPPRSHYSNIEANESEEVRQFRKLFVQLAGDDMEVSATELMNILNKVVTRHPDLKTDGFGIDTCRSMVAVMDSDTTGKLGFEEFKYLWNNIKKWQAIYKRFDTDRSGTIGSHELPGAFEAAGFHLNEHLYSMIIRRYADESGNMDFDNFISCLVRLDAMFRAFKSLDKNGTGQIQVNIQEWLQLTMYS
Method: Calcium (Ca^2+) Overload Protocol: Rapid and sustained intracellular Ca^2+ overload was obtained by adding the Ca^2+-ionophore, calcimycin (1 μM), to HL-1 cells incubated for 10 min in HBS KV medium (1.26 mM CaCl2, 0.81 mM MgSO4, 0.44 mM KH2PO4, 142 mM KCl, 0.27 mM K2HPO4, 5.55 mM D-glucose, 1 mM Na3VO4, 20 mM Hepes pH 7.4). To monitor intracellular Ca^2+ variations, HL-1 cells were loaded with 5 μM Fluo-4 FF AM (Molecular Probes) in HBS Na (Sigma) for 30 min before the media was replaced with HBS KV. […] Calpain (CAPN) Activity Assay: […] HL-1 cells were grown in 24-well plates and incubated for 30 min in HBS Na (Sigma) with 25 μM Suc-LLVY-AMC (SEQ ID NO: 81) and 0.01% pluronic F127 (Molecular Probes) before treatment protocols. […] CAPN activity was inhibited via the addition of either calpeptin (Tocris) or PD150606 (Calbiochem) in the incubation medium.

HL-1 cells [4] = assay: Intracellular Ca2+ (Fluo4 FF fluorescence) in HL-1 cells; type: cell-based, mouse; conditions: Calcimycin 1 μM in HBS KV medium
Method: (§1) Calcium (Ca^2+) Overload Protocol: Rapid and sustained intracellular Ca^2+ overload was obtained by adding the Ca^2+-ionophore, calcimycin (1 μM), to HL-1 cells incubated for 10 min in HBS KV medium (1.26 mM CaCl2, 0.81 mM MgSO4, 0.44 mM KH2PO4, 142 mM KCl, 0.27 mM K2HPO4, 5.55 mM D-glucose, 1 mM Na3VO4, 20 mM Hepes pH 7.4). To monitor intracellular Ca^2+ variations, HL-1 cells were loaded with 5 μM Fluo-4 FF AM (Molecular Probes) in HBS Na (Sigma) for 30 min before the media was replaced with HBS KV.

CAPN1 [5] = target: T1, CAPN1; assay: Western blot of CAPN1 in purified mitochondria from HL-1 cells under Ca2+ overload; type: cell-based; conditions: Ca2+ overload (HBS KVC), calpeptin 50 μM, PD150606 10 μM
Method: as §1, with “KV. The fluorescence was recorded using a fluorimeter plate reader (Fluoroskan Ascent Labsystem) at wavelength settings of 485/530 nm for excitation/emission, respectively.” for “KV.”
Mitochondria Isolation Protocol: Mitochondria were isolated from HL-1 cells in percoll density gradient. Briefly, 30×10^6 adherent cells were harvested with Trypsin/EDTA, centrifuged at 500×g for 10 min, washed in buffer A (100 mM sucrose, 1 mM EGTA, 20 mM MOPS, pH 7.4, and 1 mg/mL BSA) before cell disruption with a Dounce homogenizer. The suspension was centrifuged twice at 500× g for 5 min and the resulting supernatant at 10,000×g for 10 min at 4° C. The pellet was re-suspended in buffer B (300 mM sucrose, 1 mM EGTA, 20 mM MOPS pH 7.4, 1 mg/mL BSA), and the homogenate was layered on a two-phase (25% and 40%) percoll density gradient. […]

PPIA [6] = target: T2, PPIA (Homo sapiens, UniProt P62937); assay: KD determination of cyclic peptides derived from Formula (I); type: binding
T2 sequence (P62937 whole entry, species assumed): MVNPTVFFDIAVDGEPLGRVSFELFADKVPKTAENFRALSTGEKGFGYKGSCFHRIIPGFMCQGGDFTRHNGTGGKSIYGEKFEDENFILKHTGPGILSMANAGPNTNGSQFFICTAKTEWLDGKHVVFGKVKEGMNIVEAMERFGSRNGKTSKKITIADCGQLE

PPIA [7] = target: T2, PPIA; conditions: read-out: KD, binds and sequesters cytosolic PPIA; cited from earlier work
[8] = Calcimycin 1 μM in HBS KV medium, dose-dependent response
[9] = Ca2+ overload in HBS KV medium, 5 mM EGTA in incubation media

With `O=C(O)/C(S)=C/c1ccc(I)cc1` [PD150606] the “reduction in cell death (LDH release)” value (HL-1 cells [1]; [8]) was roughly 15%, the “Ca2+ overload-induced decrease in mitochondrial membrane potential (MMP)” value (HL-1 cells [2]) was “reduced ability to restore MMP” and the “reduction in Ca2+ overload-induced CAPN1 substrate hydrolysis” value (CAPN1 [3]; [8]) was roughly 60%. For the same molecule, the “kinetics of cytosolic Ca2+ accumulation” value (HL-1 cells [4]) was “neither of them had an impact” and the “mitochondrial CAPN1 translocation” value (CAPN1 [5]) was “failed to prevent”.
For `O=C(O)CN(CCOCCOCCN(CC(=O)O)CC(=O)O)CC(=O)O` [EGTA], the “cell death (LDH release)” value (HL-1 cells [1]; [9]) was “attenuated” and the CAPN1 activation (CAPN1 [3]; [9]) was “attenuated”.
Work on `CC[C@H](C)[C@@H]1NC(=O)[C@@H](N)CSSC[C@@H](C(N)=O)NC(=O)[C@H](C(C)C)NC(=O)[C@H](CCCCN)NC(=O)[C@H](CCCNC(=N)N)NC(=O)CNC(=O)[C@H](CC(=O)O)NC(=O)[C@H](CCCCNC(=N)N)NC(=O)[C@H](CC(C)C)NC(=O)[C@H](CCCCN)NC1=O` [X4: hR] (H-CIKL[hArg]DGRKVC-NH2; disulfide 1-11) yielded a Kd (PPIA [6]) greater than 1000 µM.
In the case of “QSVGVSSGKLLIKLKDGRKVETDHI [AIF (370-394), Linear peptide, 25 amino acids long]”, the Kd (PPIA [7]) is given as 12 µM.
`CC[C@H](C)[C@@H]1NC(=O)[C@@H](N)CSSC[C@@H](C(N)=O)NC(=O)[C@H](C(C)C)NC(=O)[C@H](CCCCNC(=N)N)NC(=O)[C@H](CCCNC(=N)N)NC(=O)CNC(=O)[C@H](CC(=O)O)NC(=O)[C@H](CCCCN)NC(=O)[C@H](CC(C)C)NC(=O)[C@H](CCCCN)NC1=O` [X8: hR] (H-CIKLKDGR[hArg]VC-NH2; disulfide 1-11) gave a Kd (PPIA [6]) greater than 1000 µM.
